What all share (format): functional
Test [1] is described as follows: In vitro half-hemolysis time at the concentration of 100 uM with LAMPBN to LGT molar ratio = 0.67/1.33.
The nature of test [2]: In vitro half-hemolysis time at the concentration of 100 uM with LAMPBN to LGT molar ratio = 1.33/0.67.
The nature of test [3]: In vitro half-hemolysis time at the concentration of 100 uM with LAMPBN to LGT molar ratio = 1/1.
Test [4] in a line: In vitro half-hemolysis time at the concentration of 200 uM with LAMPBN to LGT molar ratio = 0.67/1.33.
Test [5] is described as follows: In vitro half-hemolysis time at the concentration of 200 uM with LAMPBN to LGT molar ratio = 1.33/0.67.
Test [6] can be described thus: In vitro half-hemolysis time at the concentration of 200 uM with LAMPBN to LGT molar ratio = 1/1.
Test [7] in a line: In vitro half-hemolysis time at the concentration of 500 uM with LAMPBN to LGT molar ratio = 0.67/1.33.
Test [8] is described as follows: In vitro half-hemolysis time at the concentration of 500 uM with LAMPBN to LGT molar ratio = 1.33/0.67.
A short description of test [9]: In vitro half-hemolysis time at the concentration of 500 uM with LAMPBN to LGT molar ratio = 1/1.
Test [10] can be described thus: In vitro half-hemolysis time at the concentration of 50 uM with LAMPBN to LGT molar ratio = 0.67/1.33.
Test [11] is described as follows: In vitro half-hemolysis time at the concentration of 50 uM with LAMPBN to LGT molar ratio = 1.33/0.67.
The nature of test [12]: In vitro half-hemolysis time at the concentration of 50 uM with LAMPBN to LGT molar ratio = 1/1.
Test [13] can be described thus: In vitro half-hemolysis time at the concentration of 100 uM.
Test [14] in a line: In vitro half-hemolysis time at the concentration of 200 uM.
A short description of test [15]: In vitro half-hemolysis time at the concentration of 500 uM.
Test [16] is described as follows: In vitro half-hemolysis time at the concentration of 50 uM.

As to `CC(C)(C)/[N+]([O-])=C/c1ccc(CNC(=O)[C@H](O)[C@@H](O)C(O[C@@H]2O[C@@H](CO)[C@H](O)[C@H](O)[C@@H]2O)[C@H](O)CO)cc1.O=C(CCCCC1CCSS1)NCC(=O)NC(CO)(CO)CO` (stereo partly specified), the HT50 in test [1] was 60.8%; in [2], 47.4%; in test [3], 51.6%; in test [4], 62%; in test [5], 49.8%; in test [6] it was 53.7%. The HT50 was 88.6% in [7]; 86.3% in test [8]; 86.5% in test [9]; 56.6% in [10]; 41.5% in test [11]; 44.6% in test [12].
Take `CC(C)(COC(=O)NCCCNC(=O)CCCCC1CCSS1)/[N+]([O-])=C/c1ccc(CNC(=O)[C@H](O)[C@@H](O)[C@H](O[C@@H]2O[C@@H](CO)[C@H](O)[C@H](O)[C@@H]2O)[C@H](O)CO)cc1` (stereo partly specified): the HT50 in [13] turned out to be 82.9%; in test [14], 135%; in [15] it was 167%; in [16], 49%.

For the origin of these results see ChEMBL document CHEMBL1136152, “Synthesis and antioxidant efficiency of a new amphiphilic spin-trap derived from PBN and lipoic acid” (Bioorg Med Chem Lett, 2003).
